We go through three compounds from US9835633B1, “Compositions and methods for identifying agents for treating apoE-related diseases” (The J. David Gladstone Institutes, priority 2015, dated 2017).

For the experiment, the system named is NSE-apoE4 primary neurons. Put plainly: apoE fragmentation in NSE-apoE4 primary neurons (western blot). The class given is cell-based, mouse. As to conditions: NSE-apoE4 primary neurons treated with compound changing Golgi pH or calcium levels. The method, then: To confirm that PCSK1 and PCSK2 actually contribute to neuronal cleavage of apoE observed in NSE-apoE4 primary neurons, NSE-apoE4 primary neurons were treated with lentivirus encoding either PCSK1 shRNA or PCSK2 shRNA to decrease the endogenous PCSK1 or PCSK2 levels.
Activity of both PCSK1 and PCSK2 is pH and calcium dependent. The optimum pH for PCSK1 and PCSK2 was acidic (pH 6.0 for PCSK1, pH 5.0 for PCSK2). Their activities were enriched in Golgi/trans-Golgi in neurons, which have an acidic environment. Based on this knowledge, it was hypothesized that changing the Golgi pH or calcium levels in neurons would affect PCSK1/PCSK2 activity and further regulate apoE fragmentation. To test this idea, NSE-apoE4 primary neurons were treated with Bafilomycin A, a compound that can increase Golgi pH, or Thapsigargin/2-APB, which can affect the calcium concentration in different cellular compartments.
PCSK1/PCSK2 generated similar apoE fragmentation patterns in N2A-apoE4 cells compared to NSE-apoE4 primary neurons. To determine whether PCSK1/PCSK2-generated apoE fragments are the same as those generated endogenously, lysates from N2A-apoE4 cells overexpressing either PCSK1 or PCSK2, lysates from NSE-apoE4 primary neurons, and the mixture of these two lysates, were tested. ApoE fragmentation was detected by western blot.
For orientation: Immunoblotting shows a protein as a band on a membrane.
`NCCOB(c1ccccc1)c1ccccc1` [2-APB]: the “apoE fragmentation after compound treatment” value was “decrease of apoE fragmentation”.
Then `CO/C1=C\C(C)=C\[C@@H](C)[C@@H](O)[C@@H](C)C/C(C)=C/C=C/[C@H](OC)[C@@H]([C@@H](C)[C@@H](O)[C@H](C)[C@@]2(O)C[C@@H](O)[C@H](C)[C@@H](C(C)C)O2)OC1=O` [Bafilomycin A], with “decrease of apoE fragmentation”.
Then `C/C=C(/C)C(=O)O[C@H]1C(C)=C2[C@H]([C@@H]1OC(=O)CCCCCCC)[C@@](C)(OC(C)=O)C[C@H](OC(=O)CCC)[C@@]1(O)[C@H]2OC(=O)[C@@]1(C)O` [Thapsigargin], with “decrease of apoE fragmentation”.
